Measurements as given in US20060229433A1, “Modified antiviral peptides with increased activity and cell membrane affinity” (priority 2003, published 2006).
Where “and” joins values, the source holds several entries; their conditions need not be identical. Equal entries are not always repeated. Square brackets hold non-standard residues; d marks the D form. Peptide text beside a SMILES is read from it. Ava = NCCCCC(=O)O

Assays:
Format in all cases: cell-based
HIV-1 NL 4-3 [1] = assay: HIV-1 infection of C8166 cells (syncytia formation, p24 ELISA) with HIV-1 NL 4-3; design: key to syncitia formed, Day 4 / syncitia formed, Day 5 / syncitia formed, Day 6 / syncitia formed, Day 7: ++, +, (+), (+)− and − represent decreasing numbers of syncitia formed; ++, +, (+), (+)− and − represent decreasing numbers of syncitia formed; ++, +, (+), (+)− and − represent decreasing numbers of syncitia formed; ++, +, (+), (+)− and − represent decreasing numbers of syncitia formed; ++, +, (+), (+)− and − represent decreasing numbers of syncitia formed
Procedure, shortened: (§1)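 Infection was read out as syncytia and as cell-free p24 in supernatants (ELISA) from C8166 cells that received HIV-1 (1000 TCID50/ml, 1 h, 37 °C) after a 1 h peptide pretreatment. Peptide stayed on before, during and after adsorption. Toxicity was checked by daily trypan-blue counts.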

HIV-1 NDK = assay: HIV-1 infection of C8166 cells (syncytia formation, p24 ELISA) with HIV-1 NDK; design: key to syncitia formed, Day 4 / syncitia formed, Day 5 / syncitia formed, Day 6 / syncitia formed, Day 7: ++, +, (+), (+)− and − represent decreasing numbers of syncitia formed; ++, +, (+), (+)− and − represent decreasing numbers of syncitia formed; ++, +, (+), (+)− and − represent decreasing numbers of syncitia formed; ++, +, (+), (+)− and − represent decreasing numbers of syncitia formed; ++, +, (+), (+)− and − represent decreasing numbers of syncitia formed; settings: for P 24: P 24 after Day 7
Procedure, shortened: as §1

HIV-1 NL 4-3 [2] = assay: HIV-1 infection of C8166 cells (syncytia formation, p24 ELISA) with HIV-1 NL 4-3; design: key: ++, +, (+), (+)− and − represent decreasing numbers of syncitia formed; ++, +, (+), (+)− and − represent decreasing numbers of syncitia formed; ++, +, (+), (+)− and − represent decreasing numbers of syncitia formed; ++, +, (+), (+)− and − represent decreasing numbers of syncitia formed; ++, +, (+), (+)− and − represent decreasing numbers of syncitia formed; settings: Table 6
Procedure, shortened: as §1

C[C@H](NC(=O)[C@H](CCCNC(=N)N)NC(=O)CNC(=O)[C@@H]1CCCN1C(=O)CN)C(=O)NCCCCC(=O)O [GPGRA valeric acid, GPGRA-NHCH2CH2CH2CH2COOH] (H-GPGRA[Ava]-OH; N-terminus assumed)
Day 7 syncitia formed (HIV-1 NL 4-3 [1]; 0.005 μM, Table 6): ++/T | syncitia formed, Day 4 (HIV-1 NL 4-3 [1]; 0.01 μM, C8166 cells): − | syncitia formed, Day 5 (HIV-1 NL 4-3 [1]; 0.01 μM, C8166 cells): + | syncitia formed, Day 6 (HIV-1 NL 4-3 [1]; 0.01 μM, C8166 cells): ++ | syncitia formed, Day 7 (HIV-1 NL 4-3 [1]; 0.01 μM, Day 7, C8166 cells): ++ | P 24 (HIV-1 NL 4-3 [1]; 0.01 μM, P 24 after Day 7, C8166 cells): 13870 pg/mL and 11810 pg/mL | syncitia formed, Day 4 (HIV-1 NL 4-3 [1]; 0.05 μM, C8166 cells): − | syncitia formed, Day 5 (HIV-1 NL 4-3 [1]; 0.05 μM, C8166 cells): (+) | syncitia formed, Day 6 (HIV-1 NL 4-3 [1]; 0.05 μM, C8166 cells): + | syncitia formed, Day 7 (HIV-1 NL 4-3 [1]; 0.05 μM, Day 7, C8166 cells): + | syncitia formed, Day 4 (HIV-1 NL 4-3 [1]; 0.1 μM, C8166 cells): − | syncitia formed, Day 5 (HIV-1 NL 4-3 [1]; 0.1 μM, C8166 cells): − | syncitia formed, Day 6 (HIV-1 NL 4-3 [1]; 0.1 μM, C8166 cells): (+) | syncitia formed, Day 7 (HIV-1 NL 4-3 [1]; 0.1 μM, Day 7, C8166 cells): + | P 24 (HIV-1 NL 4-3 [1]; 0.1 μM, P 24 after Day 7, C8166 cells): 2356 pg/mL and 2416 pg/mL | syncitia formed, Day 4 (HIV-1 NL 4-3 [1]; 0.5 μM, C8166 cells): − | syncitia formed, Day 5 (HIV-1 NL 4-3 [1]; 0.5 μM, C8166 cells): − | syncitia formed, Day 6 (HIV-1 NL 4-3 [1]; 0.5 μM, C8166 cells): − | syncitia formed, Day 7 (HIV-1 NL 4-3 [1]; 0.5 μM, Day 7, C8166 cells): (+) | syncitia formed, Day 4 (HIV-1 NL 4-3 [1]; 1 μM, C8166 cells): − | syncitia formed, Day 5 (HIV-1 NL 4-3 [1]; 1 μM, C8166 cells): − | syncitia formed, Day 6 (HIV-1 NL 4-3 [1]; 1 μM, C8166 cells): − | syncitia formed, Day 7 (HIV-1 NL 4-3 [1]; 1 μM, Day 7, C8166 cells): − | P 24 (HIV-1 NL 4-3 [1]; 1 μM, P 24 after Day 7, C8166 cells): 13 pg/mL and 10 pg/mL | syncitia formed, Day 4 (HIV-1 NL 4-3 [1]; 5 μM, C8166 cells): − | syncitia formed, Day 5 (HIV-1 NL 4-3 [1]; 5 μM, C8166 cells): − | syncitia formed, Day 6 (HIV-1 NL 4-3 [1]; 5 μM, C8166 cells): − | syncitia formed, Day 7 (HIV-1 NL 4-3 [1]; 5 μM, Day 7, C8166 cells): − | P 24 (HIV-1 NL 4-3 [1]; 5 μM, P 24 after Day 7, C8166 cells): 2.7 pg/mL and 3 pg/mL | IC50 (HIV-1 NL 4-3 [1]; C8166 cells, HIV-1 subtype B NL 4-3, Table 9, two lines = tested twice, 8 days apart): 10 nM | P 24 (HIV-1 NL 4-3 [1]; Day 7, 0.005 μM, Table 6): 23810 pg/mL | P 24 (HIV-1 NL 4-3 [1]; Day 7, 0.01 μM, Table 6): 13030 pg/mL and 13810 pg/mL | P 24 (HIV-1 NL 4-3 [1]; Day 7, 0.05 μM, Table 6): 6830 pg/mL and 3820 pg/mL | P 24 (HIV-1 NL 4-3 [1]; Day 7, 0.5 μM, Table 6): 2 pg/mL and 2.2 pg/mL | P 24 (HIV-1 NL 4-3 [1]; Day 7, 1 μM, Table 6): 2.3 pg/mL and 1.9 pg/mL | P 24 (HIV-1 NL 4-3 [1]; Day 7, 5 μM, Table 6): 2.7 pg/mL and 1.8 pg/mL | syncitia formed, Day 4 (HIV-1 NDK; 0.005 μM): (+) | syncitia formed, Day 5 (HIV-1 NDK; 0.005 μM): + | syncitia formed, Day 6 (HIV-1 NDK; 0.005 μM): ++ | syncitia formed, Day 7 (HIV-1 NDK; 0.005 μM): ++ | P 24 (HIV-1 NDK; 0.005 μM): 23810 pg/mL | syncitia formed, Day 4 (HIV-1 NDK; 0.01 μM): − | syncitia formed, Day 5 (HIV-1 NDK; 0.01 μM): + | syncitia formed, Day 6 (HIV-1 NDK; 0.01 μM): ++ | syncitia formed, Day 7 (HIV-1 NDK; 0.01 μM): ++ | P 24 (HIV-1 NDK; 0.01 μM): 13810 pg/mL and 18710 pg/mL | syncitia formed, Day 4 (HIV-1 NDK; 0.05 μM): − | syncitia formed, Day 5 (HIV-1 NDK; 0.05 μM): (+) | syncitia formed, Day 6 (HIV-1 NDK; 0.05 μM): ++ | syncitia formed, Day 7 (HIV-1 NDK; 0.05 μM): ++ | syncitia formed, Day 4 (HIV-1 NDK; 0.1 μM): − | syncitia formed, Day 5 (HIV-1 NDK; 0.1 μM): (+) | syncitia formed, Day 6 (HIV-1 NDK; 0.1 μM): ++ | syncitia formed, Day 7 (HIV-1 NDK; 0.1 μM): ++ | P 24 (HIV-1 NDK; 0.1 μM): 5600 pg/mL and 6400 pg/mL | syncitia formed, Day 4 (HIV-1 NDK; 0.5 μM): − | syncitia formed, Day 5 (HIV-1 NDK; 0.5 μM): − | syncitia formed, Day 6 (HIV-1 NDK; 0.5 μM): + | syncitia formed, Day 7 (HIV-1 NDK; 0.5 μM): ++ | syncitia formed, Day 4 (HIV-1 NDK; 1 μM): − | syncitia formed, Day 5 (HIV-1 NDK; 1 μM): − | syncitia formed, Day 6 (HIV-1 NDK; 1 μM): − | syncitia formed, Day 7 (HIV-1 NDK; 1 μM): + | P 24 (HIV-1 NDK; 1 μM): 2000 pg/mL and 2403 pg/mL | syncitia formed, Day 4 (HIV-1 NDK; 5 μM): − | syncitia formed, Day 5 (HIV-1 NDK; 5 μM): − | syncitia formed, Day 6 (HIV-1 NDK; 5 μM): − | syncitia formed, Day 7 (HIV-1 NDK; 5 μM): − and (+) | IC50 (HIV-1 NDK; HIV 1 NDK, Table 10): > 5000 nM | IC100 (HIV-1 NDK; HIV 1 NDK, Table 10): 5 µM | Day 4 syncitia formed (HIV-1 NL 4-3 [2]; 0.005 μM): − | Day 5 syncitia formed (HIV-1 NL 4-3 [2]; 0.005 μM): + | Day 6 syncitia formed (HIV-1 NL 4-3 [2]; 0.005 μM): ++ | Day 4 syncitia formed (HIV-1 NL 4-3 [2]; 0.01 μM): − | Day 5 syncitia formed (HIV-1 NL 4-3 [2]; 0.01 μM): + | Day 6 syncitia formed (HIV-1 NL 4-3 [2]; 0.01 μM): ++ | Day 7 syncitia formed (HIV-1 NL 4-3 [2]; 0.01 μM): ++ | Day 4 syncitia formed (HIV-1 NL 4-3 [2]; 0.05 μM): − | Day 5 syncitia formed (HIV-1 NL 4-3 [2]; 0.05 μM): (+) | Day 6 syncitia formed (HIV-1 NL 4-3 [2]; 0.05 μM): + | Day 7 syncitia formed (HIV-1 NL 4-3 [2]; 0.05 μM): + | Day 4 syncitia formed (HIV-1 NL 4-3 [2]; 0.1 μM): − | Day 5 syncitia formed (HIV-1 NL 4-3 [2]; 0.1 μM): (+) | Day 6 syncitia formed (HIV-1 NL 4-3 [2]; 0.1 μM): + | Day 7 syncitia formed (HIV-1 NL 4-3 [2]; 0.1 μM): + | Day 4 syncitia formed (HIV-1 NL 4-3 [2]; 0.5 μM): − | Day 5 syncitia formed (HIV-1 NL 4-3 [2]; 0.5 μM): − | Day 6 syncitia formed (HIV-1 NL 4-3 [2]; 0.5 μM): − | Day 7 syncitia formed (HIV-1 NL 4-3 [2]; 0.5 μM): − | Day 4 syncitia formed (HIV-1 NL 4-3 [2]; 1 μM): − | Day 5 syncitia formed (HIV-1 NL 4-3 [2]; 1 μM): − | Day 6 syncitia formed (HIV-1 NL 4-3 [2]; 1 μM): − | Day 7 syncitia formed (HIV-1 NL 4-3 [2]; 1 μM): − | Day 4 syncitia formed (HIV-1 NL 4-3 [2]; 5 μM): − | Day 5 syncitia formed (HIV-1 NL 4-3 [2]; 5 μM): − | Day 6 syncitia formed (HIV-1 NL 4-3 [2]; 5 μM): − | Day 7 syncitia formed (HIV-1 NL 4-3 [2]; 5 μM): −
